Data from US5869476A, “Pyrimidinone derivatives” (Boryung Pharmaceutical Co., Ltd., priority 1994, dated 1999).

Target: T1, angiotensin II receptor (Oryctolagus cuniculus, UniProt P34976)
T1 construct: The aorta was cut into 3~4 mm to form ring samples; from tissue; host or cells: isolated aorta rings of New Zealand White rabbits
T1 sequence (P34976 1-359): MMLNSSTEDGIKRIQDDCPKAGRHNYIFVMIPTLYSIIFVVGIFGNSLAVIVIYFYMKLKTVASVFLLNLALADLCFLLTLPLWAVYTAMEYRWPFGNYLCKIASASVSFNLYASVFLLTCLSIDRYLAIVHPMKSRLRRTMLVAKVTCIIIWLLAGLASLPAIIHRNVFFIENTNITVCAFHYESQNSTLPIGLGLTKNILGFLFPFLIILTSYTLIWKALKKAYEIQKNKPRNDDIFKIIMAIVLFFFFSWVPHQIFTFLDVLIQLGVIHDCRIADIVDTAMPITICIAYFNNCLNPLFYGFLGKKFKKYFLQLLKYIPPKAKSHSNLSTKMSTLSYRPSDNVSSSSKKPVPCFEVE
Test: inhibition of angiotensin II induced contraction of isolated rabbit aorta rings
Format: cell-based, New Zealand White rabbit
Conditions: test compound incubated 20 minutes, 37° C., pH 7.4, read-out: IC50 (concentration being required to inhibit angiotensin II induced contraction by 50%)
How it was run: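 Rabbit aortic rings in Krebs-Henseleit, 37 °C, pH 7.4, 2 g tension, contracted with Angiotensin II […] three times, the third serving as control. Compound incubated 20 min before rechallenge; IC50 is concentration inhibiting Angiotensin II contraction by 50%.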

IC50 [nM]	Structure (SMILES)
4.06	CCCCc1nc(C)c(CCC(=O)N2CCSCC2)c(=O)n1Cc1ccc(-c2ccccc2-c2nn[nH]n2)cc1 [Compound 80, 2-n-butyl-5-(2'-thiomorpholinocarbonylethyl)-6-methyl-3-[[2'-(1H-tetrazol-5-yl)biphenyl-4-yl]methyl]-pyrimidin-4-(3H)-one]
9.87	CCCCc1nc(C)c(CCC(=O)N2CCN(C(C)=O)CC2)c(=O)n1Cc1ccc(-c2ccccc2-c2nn[nH]n2)cc1 [Compound 81, 2-n-butyl-5-[2'-(4"-acetylpiperazino)carbonylethyl]-6-methyl-3-[[2'-(1H-tetrazol-5-yI)biphenyl-4-yl]methyl]-pyrimidin-4-(3H)-one]
53	CCCCc1nc(C)c(CCC(=O)N2CCN(c3ccccn3)CC2)c(=O)n1Cc1ccc(-c2ccccc2-c2nn[nH]n2)cc1 [Compound 82, 2-n-butyl-5-[2'-(4"-(2'"-pyridyl)piperazino)carbonylethyl]-6-methyl-3-[[2'-(1H-tetrazol-5-yl)biphenyl-4-yl]methyl]-pyrimidin-4-(3H)-one]
151	CCCCc1nc(C)c(CCC(=O)N2CCN(C/C=C/c3ccccc3)CC2)c(=O)n1Cc1ccc(-c2ccccc2-c2nn[nH]n2)cc1 [Compound 83, 2-n-butyl-5-[2'-(4"-trans-cinnamylpiperazino)carbonylethyl]-6-methyl-3-[[2'-(1H-tetrazol-5-yl)biphenyl-4-yl]methyl]-pyrimidin-4-(3H)-one]
